Assay results reported in ChEMBL document CHEMBL1250449, “Aminoglycoside activity observed on single pre-translocation ribosome complexes” (Nat Chem Biol, 2010).
Each block holds one compound with its values, some of them ahead of it. Calls of active or inactive are those of the source. The rule behind the calls is not given here. Numbered stars: 1 amine (or outer) side, 2 acyl side, 3 side chain; on linkers, the order of the positions; unused ones are H or OH. Bridge positions count the residues as written; N and C are the ends. Square brackets hold non-standard residues; d marks the D form. Peptide text beside a SMILES is read from it. * marks the point of attachment. X1 = NC1=N[C@@H]([C@H](N[*:1])C(=O)[*:2])C[C@H](O)N1; ΔAla(Z-3-ureido) = NC(=O)N/C=C(\N)C(=O)O; β3hOrn = NCCC[C@H](N)CC(=O)*; Dap = NC[C@H](N)C(=O)O

Legend:
Nucleic Acid [1] = assay: Binding affinity to Escherichia coli 23S rRNA assessed as increase in classical-state occupancy by tRNA at 20 uM by smFRET; format: nucleic-acid assay; conditions: MRE600
Nucleic Acid [2] = assay: Binding affinity to Escherichia coli 16S rRNA helix 44 assessed as tRNA translocation rate; format: nucleic-acid assay; conditions: MRE600
Nucleic Acid [3] = assay: Binding affinity to Escherichia coli 16S rRNA helix 44 assessed as classical-state occupancy by tRNA; format: nucleic-acid assay; set-up: concentration or dose not given beside the values; conditions: MRE600
Nucleic Acid [4] = assay: Binding affinity to Escherichia coli 23S rRNA G2553C mutant assessed as increase in classical-state occupancy by tRNA at 20 uM by smFRET; format: nucleic-acid assay; conditions: MRE600
Nucleic Acid [5] = assay: Binding affinity to Escherichia coli 16S rRNA helix 44 assessed as decrease in classical-state occupancy by tRNA at 20 uM by smFRET; format: nucleic-acid assay; set-up: scale not given: the % may be the effect or the level left; conditions: MRE600
Nucleic Acid [6] = assay: Binding affinity to Escherichia coli 16S rRNA helix 44 assessed as increase in classical-state occupancy by tRNA at 100 nM by smFRET; format: nucleic-acid assay; conditions: MRE600
Nucleic Acid [7] = assay: Binding affinity to Escherichia coli 16S rRNA helix 44 assessed as reduction in rate of tRNA translocation at 100 nM; format: nucleic-acid assay; conditions: MRE600
Nucleic Acid [8] = assay: Binding affinity to Escherichia coli 16S rRNA helix 44 assessed as tRNA translocation rate at 100 nM (Rvb= 1.57+/-0.05 /sec); format: nucleic-acid assay; conditions: MRE600
Nucleic Acid [9] = assay: Binding affinity to Escherichia coli 23S rRNA H69 assessed as classical-state occupancy by tRNA at 20 uM (Rvb= 62.4+/-1.1%); format: nucleic-acid assay; conditions: MRE600
Nucleic Acid [10] = assay: Binding affinity to Escherichia coli 16S rRNA helix 44 assessed as classical-state occupancy by tRNA at 100 nM (Rvb= 62.4+/-1.1%); format: nucleic-acid assay; conditions: MRE600
Nucleic Acid [11] = assay: Binding affinity to Escherichia coli 16S rRNA helix 44 assessed as reduction in rate of tRNA exit from classical state at 100 nM; format: nucleic-acid assay; conditions: MRE600
Nucleic Acid [12] = assay: Binding affinity to Escherichia coli 23S rRNA H69 assessed as tRNA translocation rate at 20 uM (Rvb= 1.57+/-0.05 /sec); format: nucleic-acid assay; conditions: MRE600
Nucleic Acid [13] = assay: Binding affinity to Escherichia coli 23S rRNA assessed as decrease in classical-state occupancy by tRNA at 20 uM by smFRET; format: nucleic-acid assay; set-up: scale not given: the % may be the effect or the level left; conditions: MRE600
Nucleic Acid [14] = assay: Binding affinity to Escherichia coli 23S rRNA assessed as stabilization of classical state occupancy by tRNA by smFRET; format: nucleic-acid assay, MRE600
Nucleic Acid [15] = assay: Binding affinity to Escherichia coli 16S rRNA helix 44 assessed as increase in classical-state occupancy by tRNA at >=20 uM by smFRET; format: nucleic-acid assay; conditions: MRE600
Nucleic Acid [16] = assay: Binding affinity to Escherichia coli 16S rRNA helix 44 assessed as stabilization of classical state occupancy by tRNA by smFRET; format: nucleic-acid assay, MRE600
Nucleic Acid [17] = assay: Binding affinity to Escherichia coli 23S rRNA G2553C mutant assessed as increase in classical-state occupancy by tRNA by smFRET; format: nucleic-acid assay; conditions: MRE600
Nucleic Acid [18] = assay: Binding affinity to Escherichia coli 16S A1408G rRNA assessed as increase in classical-state occupancy by tRNA by smFRET; format: nucleic-acid assay; conditions: MRE600
Escherichia coli [19] = assay: Stabilization of classical-state occupancy by tRNA in ribosomal pre-translocation complex in Escherichia coli MRE600 expressing 16S A1408G and 23S G2553C rRNA mutant by smFRET; format: functional
Nucleic Acid [20] = assay: Binding affinity to Escherichia coli 16S rRNA helix 44 assessed as increase in classical-state occupancy by tRNA at 20 nM to 200 uM by smFRET; format: nucleic-acid assay; conditions: MRE600
Nucleic Acid [21] = assay: Binding affinity to Escherichia coli 16S rRNA helix 44 assessed as increase in classical-state occupancy by tRNA by smFRET; format: nucleic-acid assay; conditions: MRE600, TDE = time-dependent effect
[22] = biological target: T1, Bacterial 70S ribosome (Bacteria) (UniProt P0A7V0+P60723+P0AG67+P0A7R5+P0A7R9+P0A7S3+P0A7S9+P0AG59+P0ADZ4+P0A7T3+P0AG63+P0A7T7+P0A7U3+P0A7U7+P68679+P0A7V3+P0A7V8+P0A7W1+P02358+P02359+P0A7W7+P0A7X3+P0A7J3+P0A7J7+P0AA10+P0ADY3+P02413+P0ADY7+P0AG44+P0C018+P0A7K6+P0A7L0+P0A7L3+P0AG48+P61175+P0ADZ0+P60624+P68919+P0A7L8+P0A7M2+P0A7M6+P60422+P0AG51+P0A7N1+P0A7M9+P0A7N4+P0A7N9+P0A7P5+P0A7Q1+Q2EEQ2+P0A7Q6+P60438+P62399+P0AG55+P0A7K2); assay: Binding affinity to Escherichia coli ribosomal pre-translocation complex assessed as decreased rate of EF-G-catalyzed translocation by tRNA at <2 uM; conditions: MRE600
Nucleic Acid [23] = assay: Binding affinity to Escherichia coli ribosomal pre-translocation complex assessed as tRNA translocation rate at 200 uM (Rvb= 1.57+/-0.05 /sec); format: nucleic-acid assay; conditions: MRE600
[24] = biological target: T1, Bacterial 70S ribosome (Bacteria); assay: Binding affinity to Escherichia coli ribosomal pre-translocation complex assessed as stabilization of hybrid-state occupancy by tRNA at <2 uM; conditions: MRE600
[25] = biological target: T1, Bacterial 70S ribosome (Bacteria); assay: Binding affinity to Escherichia coli ribosomal pre-translocation complex assessed as decreased rate of EF-G-catalyzed translocation by tRNA at 100 nM; conditions: MRE600
[26] = biological target: T1, Bacterial 70S ribosome (Bacteria); assay: Binding affinity to Escherichia coli ribosomal pre-translocation complex assessed as stabilization of classical-state occupancy by tRNA at 200 uM; conditions: MRE600
[27] = biological target: T1, Bacterial 70S ribosome (Bacteria); assay: Binding affinity to Escherichia coli ribosomal pre-translocation complex assessed as stabilization of hybrid-state occupancy by tRNA at 100 nM; conditions: MRE600
[28] = biological target: T1, Bacterial 70S ribosome (Bacteria); assay: Binding affinity to Escherichia coli ribosomal pre-translocation complex assessed as stabilization of hybrid-state occupancy by tRNA at 2 uM; conditions: MRE600
[29] = biological target: T1, Bacterial 70S ribosome (Bacteria); assay: Binding affinity to Escherichia coli ribosomal pre-translocation complex assessed as decreased rate of EF-G-catalyzed translocation fraction by tRNA at 100 nM; conditions: MRE600
Nucleic Acid [30] = assay: Binding affinity to Escherichia coli ribosomal pre-translocation complex assessed as classical-state occupancy by tRNA at 200 uM (Rvb= 62.4+/-1.1%); format: nucleic-acid assay; conditions: MRE600
Nucleic Acid [31] = assay: Binding affinity to Escherichia coli 16S rRNA helix 44 assessed as increase in classical-state occupancy by tRNA by […]; format: nucleic-acid assay, MRE600
Escherichia coli [32] = assay: Increase in hybrid-state occupancy by tRNA in ribosomal pre-translocation complex in Escherichia coli MRE600 by smFRET method in presence of 10 uM neomycin; format: functional
Escherichia coli [33] = assay: Increase in classical-state occupancy by tRNA in ribosomal pre-translocation complex in Escherichia coli MRE600 by smFRET method in presence of 200 nM neomycin; format: functional, organism-based
Nucleic Acid [34] = assay: Binding affinity to Escherichia coli 23S rRNA H69 assessed as increase in classical-state occupancy by tRNA by […]; format: nucleic-acid assay; conditions: MRE600
Escherichia coli [35] = assay: Increase in hybrid-state occupancy by tRNA in ribosomal pre-translocation complex in Escherichia coli MRE600 by smFRET method in presence of 20 uM neomycin; format: functional, organism-based

SMILES: CN[C@@H]1[C@@H](O)[C@@H](O[C@@H]2[C@@H](O)[C@H](O[C@H]3O[C@H]([C@@H](C)NC)CC[C@H]3N)[C@@H](N)C[C@H]2N)OC[C@]1(C)O
Activity (Nucleic Acid [1]): 5%
Activity (Nucleic Acid [2]): 0.42 s⁻¹
Activity (Nucleic Acid [3]): 67.2%
Activity (Nucleic Acid [4]): 14%

SMILES: CN[C@@H]1[C@@H](O)[C@@H](O[C@@H]2[C@@H](O)[C@H](O[C@H]3O[C@H]([C@@H](C)N)CC[C@H]3N)[C@@H](N)C[C@H]2N)OC[C@]1(C)O
Activity (Nucleic Acid [1]): 5%
Activity (Nucleic Acid [2]): 0.42 s⁻¹
Activity (Nucleic Acid [3]): 67.2%
Activity (Nucleic Acid [4]): 18%

SMILES: NC[C@@H]1O[C@H](O[C@H]2[C@@H](O)[C@H](O[C@@H]3[C@@H](O)[C@H](N)C[C@H](N)[C@H]3O[C@H]3O[C@H](CN)[C@@H](O)[C@H](O)[C@H]3N)O[C@@H]2CO)[C@H](N)[C@@H](O)[C@@H]1O
Activity (Nucleic Acid [5]): 10%
Activity (Nucleic Acid [6]): 6%
fold change (FC) (Nucleic Acid [7]): 3
Activity (Nucleic Acid [8]): 0.31 s⁻¹
Activity (Nucleic Acid [9]): 52%
Activity (Nucleic Acid [10]): 70.3%
fold change (FC) (Nucleic Acid [11]): 1.5
Activity (Nucleic Acid [12]): 0.06 s⁻¹
Activity (Nucleic Acid [13]): 10%

SMILES: NC[C@H]1O[C@H](O[C@H]2[C@H](O)[C@@H](O[C@H]3O[C@H](CO)[C@@H](O)[C@H](N)[C@H]3O)[C@H](N)C[C@@H]2N)[C@H](N)[C@@H](O)[C@@H]1O [BEKANAMYCIN]
EC50 (Nucleic Acid [14]): 300 nM
Activity (Nucleic Acid [15]): Active
EC50 (Nucleic Acid [16]): 300 nM
Activity (Nucleic Acid [1]): 8%
Activity (Nucleic Acid [2]): 0.27 s⁻¹
Activity (Nucleic Acid [17]): 25%
Activity (Nucleic Acid [18]): inactive
Activity (Escherichia coli [19]): 10%
Activity (Nucleic Acid [3]): 69.6%
Activity (Nucleic Acid [20]): Dose-dependent effect
Activity (Nucleic Acid [4]): 25%
Activity (Nucleic Acid [21]): tde

SMILES: NC[C@@H]1O[C@@H](O[C@H]2[C@H](O)[C@@H](O[C@H]3O[C@H](CO)[C@@H](O)[C@H](N)[C@H]3O)[C@H](N)C[C@@H]2N)[C@@H](O)[C@H](O)[C@H]1O [KANAMYCIN A]
EC50 (Nucleic Acid [14]): 300 nM
Activity (Nucleic Acid [15]): Active
EC50 (Nucleic Acid [16]): 300 nM
Activity (Nucleic Acid [1]): 8%
Activity (Nucleic Acid [2]): 0.27 s⁻¹
Activity (Nucleic Acid [17]): 25%
Activity (Nucleic Acid [18]): inactive
Activity (Escherichia coli [19]): 10%
Activity (Nucleic Acid [3]): 69.6%
Activity (Nucleic Acid [20]): Dose-dependent effect
Activity (Nucleic Acid [4]): 25%
Activity (Nucleic Acid [21]): tde

SMILES: NC[C@@H]1O[C@H](O[C@H]2[C@@H](O)[C@H](O[C@@H]3[C@@H](O)[C@H](N)C[C@H](N)[C@H]3O[C@H]3O[C@H](CO)[C@@H](O)[C@H](O)[C@H]3N)O[C@@H]2CO)[C@H](N)[C@@H](O)[C@@H]1O
Activity (Nucleic Acid [1]): 2%
Activity (Nucleic Acid [2]): 0.51 s⁻¹
Activity (Nucleic Acid [3]): 63.9%
Activity (Nucleic Acid [4]): 12%

Second part, led by results:

Activity [22]: Active
Activity (Nucleic Acid [23]): 0.04 s⁻¹
Activity [24]: Active
fold change (FC) [25]: 1.5
Activity [26]: Active
Activity [27]: 10%
Activity [28]: Active
fold change (FC) [29]: 2
Activity (Nucleic Acid [30]): 46.8%
SMILES: NCCC[C@H](N)CC(=O)N[C@H]1CNC(=O)[C@H]([C@H]2C[C@H](O)NC(N)=N2)NC(=O)/C(=C/NC(N)=O)NC(=O)[C@H](CO)NC(=O)[C@H](CO)NC1=O (β3hOrn-[Dap]SS[ΔAla(Z-3-ureido)][X1]; lactam 1-C)

EC50 (Nucleic Acid [31]): 100 nM
Activity (Nucleic Acid [34]): > 1 µM
SMILES: COc1ccc(C[C@H](N)C(=O)N[C@H]2[C@@H](O)[C@H](n3cnc4c(N(C)C)ncnc43)O[C@@H]2CO)cc1 [PUROMYCIN]
Activity (Escherichia coli [32]): 25%
Activity (Escherichia coli [33]): Active
Activity (Escherichia coli [35]): Active
